The values below come from PMC3319098 (Journal of the American Chemical Society, 2012).

Test [1] has as its target T1, bovine carbonic anhydrase (BCA) (Bos taurus, UniProt P00921). Nature of the test: MagLev measurement of BCA binding to ligand-functionalized PEGA beads. The note with it: incubation with 0.33 mM BCA for 7 days; standard levitation buffer.
Test [2] deals with T1, bovine carbonic anhydrase (BCA). The note with it: resin-bound control ligand; cited from earlier work.

T1 sequence (P00921 whole entry): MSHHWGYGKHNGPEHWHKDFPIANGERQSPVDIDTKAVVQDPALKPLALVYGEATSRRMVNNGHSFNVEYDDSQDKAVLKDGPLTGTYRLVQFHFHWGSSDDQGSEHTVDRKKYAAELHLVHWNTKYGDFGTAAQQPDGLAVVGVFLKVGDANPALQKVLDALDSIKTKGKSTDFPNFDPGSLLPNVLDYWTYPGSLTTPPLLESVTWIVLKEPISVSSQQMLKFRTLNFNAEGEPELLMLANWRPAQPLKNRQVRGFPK

Consider `CN(C)S(=O)(=O)c1ccc(C(=O)O)cc1` [sulfonamide 2, 4-dimethylsulfamoylbenzoic acid], for which the “decrease in the levitation height of functionalized beads” value in test [1] is reported as < 0.1 mm. For the same compound, the “association with BCA” value in test [2] is “should not associate measurably”.
